Experimental findings from US20240181087A1, “COMPOSITION FOR CONTRAST IMAGING OF CANCER” (ASTELLAS PHARMA INC., priority 2021, published 2024) are described below.

One assay deals with RenCa kidney cancer cell. The assay can be described thus: near-infrared fluorescence observation of kidney, kidney cancer mouse (RenCa in left kidney). To be noted: tail vein 12 nmol/kg, after 10 minutes. The class given is in vivo. How it is done: Under anesthesia by subcutaneous administration of ketamine (75 mg/kg) and medetomidine (1 mg/kg), RenCa kidney cancer cell (5×10^6 cells, purchased from CLS Cell Lines Service GmbH, Eppelheim, Germany) was transplanted into the left kidney of a mouse (weight: about 20 g), and the resultant mouse was bred for 9 to 14 days to create a kidney cancer mouse. […] The fluorescence from a cancer tissue was weak, the fluorescence from a normal tissue was strong, and thus, the cancer tissue and the normal tissue could be distinguished from each other (FIG. 24).

Assay [1] has as its system CT26 (colorectal cancer cell). Briefly: near-infrared fluorescence imaging after administration into tumor, CT26 colorectal cancer model. To be noted: 0.02 to 0.05 mL of 1 mg/mL saline, transdermal imaging. The class given is in vivo, mouse. From the text: A syngeneic tumor transplanted mouse model was created as follows referring to “Gan-Shikkan Model no Sakusei to Riyo (Cancer-Creation and Use of Disease Model)” (Takuro Nakamura, LIC, 2012). • (Breast Cancer) A tumor model was created by breeding a normal Balb/c mouse (weight: about 20 g to 30 g) for 14 days with mouse tumor cell 4T1 subcutaneously administered thereto. • (Colorectal Cancer) A tumor model was created by breeding a normal Balb/c mouse (weight: about 20 g to 30 g) for 14 days with CT26 (colorectal cancer cell) subcutaneously administered thereto. • (Skin Cancer) A tumor model was created by breeding a C57BL/6 mouse (weight: about 15 g to 20 g) for 14 days with B16F1 (skin cancer cell) subcutaneously administered thereto.
Subsequently, to the tumor of each of the model mice, 0.02 to 0.05 mL of a saline containing the compound III or ICG (concentration of the compound III or ICG: 1 mg/mL) was administered, and fluorescence imaging was performed transdermally with a near-infrared fluorescence camera (Fluobeam, manufactured by Fluoptics, http://www.solve-net.com/info/wp-content/uploads/downloads/2013/12/Fluobeam.pdf) (excitation wavelength: 780 nm, detection wavelength: 800 nm or more).

For assay [2], the system named is mouse bladder cancer cell MB49. The assay can be described thus: near-infrared fluorescence observation of bladder after intravesical administration via the urethra, MB49 bladder cancer mouse model. The assay is classed as in vivo. To be noted: into bladder via urethra, after 30 minutes washed with saline five times. The procedure:
Two bladder cancer mouse models (weight: about 20 g), having mouse bladder cancer cell MB49 transplanted in the bladder mucosa, and then grown for 3 weeks or 4 weeks, were used. To the bladder of each of the mice, 0.2 mL of a saline containing the compound III (concentration of the compound III: 0.075 mg/mL) was administered via the urethra, and after 30 minutes, the inside of the bladder was washed via the urethra with saline five times. Thereafter, the mouse was subjected to laparotomy under anesthesia by subcutaneous administration of ketamine (75 mg/kg) and medetomidine (1 mg/kg), and near-infrared fluorescence observation was performed with a near-infrared fluorescence imaging device (pde-neo, manufactured by Hamamatsu Photonics K.K.) (FIG. 3, right: near-infrared fluorescence image).
As a comparative example, a saline containing the compound III was administered to the bladder of a normal mouse (weight: about 20 g) via the urethra, and after 30 minutes, the inside of the bladder was washed via the urethra with saline five times. Thereafter, the mouse was subjected to laparotomy under anesthesia by subcutaneous administration of ketamine (75 mg/kg) and medetomidine (1 mg/kg), and near-infrared fluorescence observation was performed with a near-infrared fluorescence imaging device (pde-neo, manufactured by Hamamatsu Photonics K.K.) (FIG. 4). […]

Assay [3] has as its system RenCa cell. The assay can be described thus: near-infrared fluorescence imaging of abdominal cavity, peritoneal cancer mouse model (RenCa, intraperitoneal). The conditions noted are these: tail vein 12 nmol/kg; laparotomy immediately after administration. The class given is in vivo. The procedure:
Metastatic spontaneous renal cell carcinoma line from BALB/c mouse, RenCa cell (5×10^6 cells, purchased from CLS Cell Lines Service GmbH, Eppelheim, Germany) was intraperitoneally inoculated into a mouse (BALB/cCrSlc, SPF, female, 7 weeks old) and the resultant mouse was bred for 14 days to cause peritoneal cancer therein. The mouse (weight: about 20 g) was anesthetized by subcutaneous administration of ketamine (75 mg/kg) and medetomidine (1 mg/kg), and the compound III (12 nmol/kg weight) was administered through the tail vein. Immediately after the administration, laparotomy was conducted to perform near-infrared fluorescence imaging with a near-infrared fluorescence imaging device (pde-neo, manufactured by Hamamatsu Photonics K.K.).

The subject of assay [4] is RenCa cell. Briefly: near-infrared fluorescence imaging of lung, lung cancer-bearing mouse (RenCa, tail vein inoculation). The assay is classed as in vivo. The conditions noted are these: tail vein 120 nmol/kg; after 10 minutes; excised lung. How it is done:
Metastatic spontaneous renal cell carcinoma line from BALB/c mouse, RenCa cell (1×10^6 cells, purchased from CLS Cell Lines Service GmbH, Eppelheim, Germany) was prepared in RPMI-1640 medium (fetal bovine serum free, FUJIFILM Wako Pure Chemical Corporation), the resultant was inoculated in a mouse (BALB/cCrSlc, SPF, female, 7 weeks old) by tail vein administration under anesthesia by subcutaneous administration of ketamine (75 mg/kg) and medetomidine (1 mg/kg), and the resultant mouse was bred for 18 days to cause lung cancer therein. The mouse was anesthetized by subcutaneous administration of ketamine (75 mg/kg) and medetomidine (1 mg/kg), and the compound III (120 nmol/kg weight) was administered through the tail vein. After 10 minutes, the lung was excised to perform near-infrared fluorescence imaging with a near-infrared fluorescence imaging device (pde-neo, manufactured by Hamamatsu Photonics K.K.).

As to `COC1=C(/C=C/C2=[N+](CCC(=O)NCCCO[C@H]3[C@H]4O[C@H]5[C@H](O)[C@@H](O)[C@@H](O[C@H]6[C@H](O)[C@@H](O)[C@@H](O[C@H]7[C@H](O)[C@@H](O)[C@@H](O[C@H]8[C@H](O)[C@@H](O)[C@@H](O[C@H]9[C@H](O)[C@@H](O)[C@@H](O[C@H]%10[C@H](O)[C@@H](O)[C@@H](O[C@@H]([C@@H]3O)[C@@H](CO)O4)O[C@@H]%10CO)O[C@@H]9CO)O[C@@H]8CO)O[C@@H]7CO)O[C@@H]6CO)O[C@@H]5CO)c3ccc4ccccc4c3C2(C)C)CCC/C1=C\C=C1\N(CCC(=O)NCCCO[C@H]2[C@H]3O[C@H]4[C@H](O)[C@@H](O)[C@@H](O[C@H]5[C@H](O)[C@@H](O)[C@@H](O[C@H]6[C@H](O)[C@@H](O)[C@@H](O[C@H]7[C@H](O)[C@@H](O)[C@@H](O[C@H]8[C@H](O)[C@@H](O)[C@@H](O[C@H]9[C@H](O)[C@@H](O)[C@@H](O[C@@H]([C@@H]2O)[C@@H](CO)O3)O[C@@H]9CO)O[C@@H]8CO)O[C@@H]7CO)O[C@@H]6CO)O[C@@H]5CO)O[C@@H]4CO)c2ccc3ccccc3c2C1(C)C.[Cl-]` [compound III, 3-(3-{[3-(cyclomaltoheptaose-21-O-yl)propyl]amino}-3-oxopropyl)-2-{(1E)-2-[(3E)-3-{(2E)-2-[3-(3-{[3-(cyclomaltoheptaose-21-O-yl)propyl]amino}-3-oxopropyl)-1,1-dimethyl-1,3-dihydro-2H-benzo[e]indol-2-ylidene]ethylidene}-2-methoxycyclohexa-1-en-1-yl]ethene-1-yl}-1,1-dimethyl-1H-benzo[e]indol-3-ium chloride], in the assay with RenCa kidney cancer cell, the “fluorescence from kidney cancer tissue” value is “weak” and the “fluorescence from normal kidney tissue” value was “strong”. Moreover, in assay [1], the “retention in tumor (fluorescence imaging)” value is listed as “retained in the tumor”. In addition, the “near-infrared fluorescence in cancer tissue of the bladder” value in assay [2] (MB49 bladder cancer mouse model, 0.2 mL 0.075 mg/mL) is listed as “specifically observed”. In addition, in assay [2] (normal mouse), the “near-infrared fluorescence of normal tissue (bladder)” value is “did not emit near-infrared fluorescence”. Moreover, the “near-infrared fluorescence from peritoneal cancer site versus normal tissue” value with RenCa cell [3] was “stronger than that from a normal tissue”. Further, the “intensity of near-infrared fluorescence in lung cancer site” value with RenCa cell [4] is on record as “low”.
